Test results taken from paper PMC3981819, “Signaling Properties and Pharmacological Analysis of Two Sulfakinin Receptors from the Red Flour Beetle, Tribolium castaneum” (PLoS ONE, 2014).

Columns and labels:
[1] = system: Trica-SKR1; experiment: CRE-luciferase reporter-gene assay (cAMP), HEK293T cells transfected with Trica-SKR1; format: cell-based, Tribolium castaneum; conditions: HEK293T cells cotransfected with CRE-luciferase; 200 μM IBMX; 3–4 h at 37°C; six independent measurements in duplicate; read-out: EC50, luciferase bioluminescence (cAMP), Trica-SKR1
Method: (§1) General pharmacological studies were performed in Chinese Hamster Ovary (CHO) WTA11 cells, stably coexpressing apoaequorin, a zeocin resistance gene and the promiscuous Gα16, which couples most agonist-induced GPCRs to the phospholipase C and Ca^2+ pathway irrespective of their natural signaling cascade. CHO-PAM28 cells stably expressing apoaequorin and a puromycin resistance gene but not Gα16 and HEK293T cells (Invitrogen) were used to determine possible effects on Ca^2+ and/or cAMP second messenger systems, respectively. […]
(§2) Cells were cultured in vitro as a monolayer at 37°C with a constant supply of 5% CO2 and were subcultivated twice a week. […] HEK 293T cells were cotransfected with a receptor construct (6 μg) and CRE-luciferase reporter construct (3 μg), consisting of the open reading frame of the luciferase gene, downstream of a multimerized cAMP-response-element (CRE) and promoter. […] Cells were again incubated overnight for a final growth phase before luminescence screens were performed.
(§3) The luciferase reporter-gene assay was used to quantify positive or negative coupling of the receptor to cAMP in HEK293T cells. Cotransfected HEK293T cells were detached and the viable cells were quantified using the NucleoCounter NC-100 (Chemometic) as described for CHO cells. […] Data were analyzed as described for CHO cells.

[2] = system: Trica-SKR2; experiment: Aequorin-luminescence assay, CHO-PAM28 cells (no Gα16) transfected with Trica-SKR2; format: cell-based, Tribolium castaneum; conditions: CHO-PAM28 cells without Gα16; aequorin bioluminescence (Ca2+); three independent measurements in duplicate; read-out: EC50 for receptor activation in CHO-PAM28 cells, Trica-SKR2
Method: as §1, §2
(§4) The aequorin luminescence assay was used to measure Ca^2+ signaling in CHO cell lines. […] The viable cells were quantified using a NucleoCounter NC-100 (Chemometic). […] Incubated cells were added to the wells of the 96-well plate and light emission was measured for 30 s using a Mithras LB940 (Berthold Technologies). […]

[3] = system: Trica-SKR1; experiment: Aequorin-luminescence assay, CHO-PAM28 cells (no Gα16) transfected with Trica-SKR1; format: cell-based, Tribolium castaneum; conditions: CHO-PAM28 cells without Gα16; aequorin bioluminescence (Ca2+); three independent measurements in duplicate; read-out: EC50 for receptor activation in CHO-PAM28 cells, Trica-SKR1
Method: as §1, §2, §4

[4] = system: CHO-PAM28 cells transfected with empty pcDNA3.1/V5-His-TOPO TA expression vector; experiment: Aequorin-luminescence assay, CHO-PAM28 cells transfected with empty expression vector; format: cell-based, Chinese Hamster; conditions: aequorin bioluminescence
Method: as §1, §2, §4

[5] = system: Trica-SKR2; experiment: CRE-luciferase reporter-gene assay (cAMP), HEK293T cells transfected with Trica-SKR2; format: cell-based, Tribolium castaneum; conditions: HEK293T cells cotransfected with CRE-luciferase; 200 μM IBMX; 3–4 h at 37°C; three independent measurements in duplicate; read-out: EC50, luciferase bioluminescence (cAMP), Trica-SKR2
Method: as §1, §2, §3

[6] = system: Trica-SKR1; experiment: Aequorin-luminescence assay, CHO-WTA11 cells (Gα16) transfected with Trica-SKR1; format: cell-based, Tribolium castaneum; conditions: aequorin bioluminescence
Method: (§5) General pharmacological studies were performed in Chinese Hamster Ovary (CHO) WTA11 cells, stably coexpressing apoaequorin, a zeocin resistance gene and the promiscuous Gα16, which couples most agonist-induced GPCRs to the phospholipase C and Ca^2+ pathway irrespective of their natural signaling cascade. CHO-PAM28 cells stably expressing apoaequorin and a puromycin resistance gene but not Gα16 and HEK293T cells (Invitrogen) were used to determine possible effects on Ca^2+ and/or cAMP second messenger systems, respectively. All cell lines were cultured in Dulbecco’s Modified Eagles Medium nutrient mixture F12-Ham (DMEM/F12; Invitrogen) supplemented with 1% penicillin/streptomycin (10000 units/ml penicillin and 10 mg/ml streptomycin in 0.9% NaCl; Invitrogen) to prevent bacterial contamination of gram-positive and gram-negative bacteria. In CHO-WTA11 culture medium 250 μg/ml zeocin (Invitrogen) was added as a selection marker, while CHO-PAM28 culture medium was supplemented with 5 μg/ml puromycin to select cells stably expressing apoaequorin. All cell culture media were supplemented with 10% fetal bovine serum (inactivated at […]; Sigma-Aldrich).
(§6) Cells were cultured in vitro as a monolayer at 37°C with a constant supply of 5% CO2 and were subcultivated twice a week. Transfections of cells were performed in T75 flasks at 60–80% confluency. Transfection reagent for CHO cells was prepared by combining 3.75 ml Opti-MEM I (Invitrogen), 7.5 μg plasmid DNA and 18.75 μl of Plus Reagent (Invitrogen). After gently mixing and 5 min incubation at room temperature 45 μl of Lipofectamine LTX was added to the mixture. This transfection medium was incubated for 30 min at room temperature and added dropwise to the cells, supplemented with 3 ml of fresh culture medium. HEK 293T cells were cotransfected with a receptor construct (6 μg) and CRE-luciferase reporter construct (3 μg), consisting of the open reading frame of the luciferase gene, downstream of a multimerized cAMP-response-element (CRE) and promoter. After transfection, cells were grown overnight before an additional 20 ml of culture medium was supplemented. Cells were again incubated overnight for a final growth phase before luminescence screens were performed.
(§7) The aequorin luminescence assay was used to measure Ca^2+ signaling in CHO cell lines. Cells were detached using phosphate buffered saline (PBS) containing 0.2% EDTA and collected in 10 ml of DMEM/F-12 (without phenol red, with L-glutamine and 10 mM HEPES; Gibco). The viable cells were quantified using a NucleoCounter NC-100 (Chemometic). Cells were pelleted by 4 min centrifugation at 800 rpm at room temperature and resuspended in DMEM/BSA (DMEM/F-12 without phenol red, with L-glutamine and 10 mM HEPES, 0.1% bovine serum albumin) at a concentration of 5×10^6 cells/ml. Cells were then shielded from light and Coelenterazine H (Invitrogen) was added at a final concentration of 5 μM. Cells were gently shaken at room temperature for 4 h under dark conditions, allowing the aequorin holoenzyme to be reconstituted. After a 10-fold dilution in DMEM/BSA, cells were incubated another 30 min under the same conditions. Pharmacological ligands were dissolved in DMEM/BSA and 50 μl of ligand was added to wells of a 96-well plate. Wells containing 50 μl of DMEM/BSA were used as a negative control, while wells containing 1 μM of ATP served as positive control. Incubated cells were added to the wells of the 96-well plate and light emission was measured for 30 s using a Mithras LB940 (Berthold Technologies). After 30 s Triton X-100 (0.2% in DMEM/BSA) was added, lysing the cells and thus serving as an internal reference. Light emission was measured for an additional 8 s after Triton X-100 was introduced in the wells. Light emission from each well was calculated relative to the total response (ligand+Triton X-100) using the output file of Mikrowin2000 software (Mikrotek). Further analysis was done in Graphpad Prism 5.

[7] = system: Trica-SKR2; experiment: Aequorin-luminescence assay, CHO-WTA11 cells (Gα16) transfected with Trica-SKR2; format: cell-based, Tribolium castaneum; conditions: aequorin bioluminescence
Method: as §5, §6, §7

[8] = system: HEK293T cells transfected with empty pcDNA3.1/V5-His-TOPO TA expression vector; experiment: CRE-luciferase reporter-gene assay, HEK293T cells transfected with empty expression vector; format: cell-based; conditions: CRE-luciferase bioluminescence
Method: as §1, §2, §3

[9] = peptide at 1 μM, relative to sTrica-SK(5–13) at 1 μM = 100%, at least three biological repeats, each in duplicate

FDDY(SO3H)GHMRFa [sTrica-SK(5–13), sulfated C-terminal fragment of T. castaneum SK comprising amino acids 5–13, reference compound]
EC50 [1]: 0.0049 ± 0.0042 nM | EC50 [2]: 1.61 ± 0.45 nM | EC50 [3]: 0.0585 ± 0.024 nM | signal in empty-vector transfected CHO-PAM28 cells [4]: no signal was observed | EC50 [5]: 1.4 ± 0.3 nM | concentration at which maximal response was attained, Trica-SKR1 [6]: 100 nM | EC50 ([6]; 1 fM to 1 μM, ± 95% confidence interval, three independent measurements in duplicate): 0.0995 ± 0.028 nM | % Trica-SKR1 (relative activation) [6, 9]: 100.0% | concentration at which maximal response was attained, Trica-SKR2 [7]: 100 nM | EC50 ([7]; 1 fM to 1 μM, three independent measurements in duplicate): 0.524 ± 0.2 nM | % Trica-SKR2 (relative activation) [7, 9]: 100.0% | signal in empty-vector transfected HEK293T cells [8]: no signal was observed
